Results reported in paper PMC4736845, “Structural comparison between the open and closed forms of citrate synthase from Thermus thermophilus HB8” (Biophysics and Physicobiology, 2015).

Biological target: T1, TtCS (citrate synthase from Thermus thermophilus HB8) (Thermus thermophilus, UniProt Q5SIM6)
T1 construct: gene TTHA1343; recombinant, E. coli BL21(DE3) pET-3a; no tag stated; 377 residues, Mr 42,304 per subunit; homodimer
T1 sequence (Q5SIM6 1-377): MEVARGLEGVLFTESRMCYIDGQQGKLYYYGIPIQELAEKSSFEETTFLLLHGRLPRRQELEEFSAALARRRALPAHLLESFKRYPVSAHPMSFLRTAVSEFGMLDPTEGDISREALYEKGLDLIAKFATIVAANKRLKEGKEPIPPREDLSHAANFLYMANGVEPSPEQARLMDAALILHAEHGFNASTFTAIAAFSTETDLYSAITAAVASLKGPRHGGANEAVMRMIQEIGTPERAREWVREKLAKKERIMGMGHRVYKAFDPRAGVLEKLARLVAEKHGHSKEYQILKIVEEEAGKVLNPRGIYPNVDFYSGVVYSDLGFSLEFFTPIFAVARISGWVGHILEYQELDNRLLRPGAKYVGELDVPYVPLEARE
Assay: X-ray crystal structure, […] Å, co-crystallised
Format: binding
Settings: closed forms (fully and partially closed)

Compound | X-ray crystal structure, 2.3 Å, co-crystallised (ternary complex with citrate, same crystallisation, active site just above citrate) | X-ray crystal structure, 2.3 Å, co-crystallised (ternary complex with CoA, 10 mM Na-citrate, 10 mM CoA, 100 mM KCl, then 1.5 M lithium sulfate, 100 mM Na-citrate pH 5.8, 20°C, active site)
CC(C)(COP(=O)(O)OP(=O)(O)OC[C@H]1O[C@@H](n2cnc3c(N)ncnc32)[C@H](O)[C@@H]1OP(=O)(O)O)[C@@H](O)C(=O)NCCC(=O)NCCS [CoA] | CoA is bound at the upper part of the active site just above the citrate-binding site | 
O=C(O)CC(O)(CC(=O)O)C(=O)O [citrate] |  | Citrate is bound deep in the cleft of the active site by hydrogen bonds
